Measurements: patent US12115140B2, “Method of treating adenoid cystic carcinoma” (THE TRUSTEES OF COLUMBIA UNIVERSITY IN THE CITY OF NEW YORK, priority 2020, dated 2024)

Experiments:
ACCX9 primary cultures = experiment: Microscope images of ACCX9 primary cultures; type: cell-based, human; conditions: 10 μM, 7 days
Source text: FIGS. 3G, 3H and 3I are microscope images of ACCX9 primary cultures treated with DMSO, BMS493 and AGN193109, respectively. […] With reference to FIGS. 3E-3F, combination treatments may be used, based on the use of inverse agonists of RAR/RXR signaling (e.g., BMS493 or AGN193109) as radio-sensitizers and/or chemo-sensitizers (i.e., agents able to increase the cytotoxic activity of radiotherapy and/or chemotherapy).

[1] = system: human ACC primary cultures (ACCX5M1, ACCX9); experiment: Cell viability / cytotoxic activity in primary cultures of ACC PDX lines; type: cell-based; conditions: for cell viability: ACCX5M1, vs DMSO control cultures, FIG. 3E; for cytotoxic activity: ACCX9 (solid histology), FIG. 3F
Source text: With reference to FIGS. 3E-3F, combination treatments may be used, based on the use of inverse agonists of RAR/RXR signaling (e.g., BMS493 or AGN193109) as radio-sensitizers and/or chemo-sensitizers (i.e., agents able to increase the cytotoxic activity of radiotherapy and/or chemotherapy).

[2] = system: CD49f^low, KIT^+ (ductal-like) and CD49f^high, KIT^neg (myoepithelial-like) cells of human ACCs; experiment: Flow cytometry of short-term primary cultures from ACC PDX lines: relative content of ductal-like and myoepithelial-like cells; type: cell-based; conditions: for significance of reduction in percentage of CD49f^low, KIT^+ (ductal-like) cells: at both 1 μM and 10 μM, ACCX5M1 and SGTX6, vs NT or DMSO; for percentage of myoepithelial-like cells (CD49f^high, KIT^neg): ACCX5M1, direct agonists, vs DMSO
Source text: From a histological point of view, ACCs are usually characterized by a “bi-phasic differentiation” (i.e., the malignant tissues contain two distinct cell populations, which are commonly referred to as “myoepithelial-like” and “ductal-like” cells). A combination of cell surface markers (CD49f, KIT) have been discovered which enable the differential purification and accurate quantification of the two populations using fluorescence activated cell sorting (FACS). It has further been discovered that myoepithelial-like (CD49f^high, KIT^neg) cells are associated with more aggressive biological properties as compared to ductal-like (CD49f^low, KIT^+) cells when tested for their tumorigenic capacity (i.e., their capacity to sustain the formation of a new tumor upon xeno-transplantation in immuno-deficient mice).
FIGS. 1A-1F and 2A-2D illustrate the in vitro anti-tumor activity of BMS493 against human ACCs. FIGS. 1A and 1B show the results of a short-term primary culture from a patient-derived xenograft (PDX) line representative of human ACCs with “cribriform” histology (ACCX5M1) treated in vitro with BMS493 (10 μM) for 7 days and then analyzed by flow cytometry. FIGS. 1C and 1D show the results of a short-term primary culture from a patient-derived xenograft (PDX) line representative of human ACCs with “cribriform” histology (SGTX6) treated in vitro with BMS493 (10 μM) for 7 days and then analyzed by flow cytometry. FIGS. 1E and 1F show the results of a short-term primary culture from a patient-derived xenograft (PDX) line representative of human ACCs with “cribriform” histology (ACCX6) treated in vitro with BMS493 (10 μM) for 7 days and then analyzed by flow cytometry.
FIGS. 3A-3I illustrate the in vitro anti-tumor activity of BMS493 and AGN193109 against human ACCs. FIGS. 3A and 3B show comparison plots of short-term primary cultures from two patient-derived xenograft (PDX) lines representative of human ACCs with “cribriform” histology (SGTX6 and ACCX5M1, respectively), which were treated in vitro for 7 days with either BMS493 or AGN193109 and then analyzed by flow cytometry.

[3] = system: ACCX5M1 organoid cultures, ductal-like (CD49f^low, KIT^+) cells; experiment: Organoid cultures of ACCX5M1 PDX line treated one week: inverse agonists versus neutral antagonist, flow cytometry; type: cell-based, human; conditions: for killing of ductal-like (CD49f^low, KIT^+) cells: ACCs cultured in vitro as three-dimensional (3D) organoids
Experimental: Further, as shown in FIGS. 6A-10, the efficacies of the inverse agonists BMS493 and AGN193109 were compared against a neutral antagonist (BMS195614). For FIGS. 6A-8, organoid cultures from a patient derived xenograft line (ACCX5M1) were treated for one week with DMSO (as a control), the neutral antagonist (BMS195614, 1 μM, 10 μM) or the inverse agonists (BMS493 1 μM, BMS493 10 μM, AGN193109 10 μM). The graphs display the percentage of KIT+ cells in each culture condition. FIG. 6A is a scatter plot displaying the relative content of myoepithelial-like cells and ductal-like cells in a primary in vitro organoid culture of the ACCX5M1 patient-derived xenograft (PDX) line treated with DMSO for 7 days and analyzed by flow cytometry. FIG. 6B is a scatter plot displaying the relative content of myoepithelial-like cells and ductal-like cells in a primary in vitro organoid culture of the ACCX5M1 patient-derived xenograft (PDX) line treated with the neutral antagonist BMS195614 (1 μM) for 7 days and analyzed by flow cytometry. FIG. 6C is a scatter plot displaying the relative content of myoepithelial-like cells and ductal-like cells in a primary in vitro organoid culture of the ACCX5M1 patient-derived xenograft (PDX) line treated with the neutral antagonist BMS195614 (10 μM) for 7 days and analyzed by flow cytometry.
FIG. 7A is a scatter plot displaying the relative content of myoepithelial-like cells and ductal-like cells in a primary in vitro organoid culture of the ACCX5M1 patient-derived xenograft (PDX) line treated with the inverse agonist BMS493 (1 μM) after one week. FIG. 7B is a scatter plot displaying the relative content of myoepithelial-like cells and ductal-like cells in a primary in vitro organoid culture of the ACCX5M1 patient-derived xenograft (PDX) line treated with the inverse agonist BMS493 (10 μM) for 7 days and analyzed by flow cytometry. FIG. 7C is a scatter plot displaying the relative content of myoepithelial-like cells and ductal-like cells in a primary in vitro organoid culture of the ACCX5M1 patient-derived xenograft (PDX) line treated with the inverse agonist AGN193109 (10 μM) for 7 days and analyzed by flow cytometry. FIG. 8 is a bar graph comparing the percentage of ductal-like (CD49f^low, KIT^+) cells after one week from each of the treatments of FIGS. 6A-7C. FIG. 9 is a bar graph comparing the percentage of ductal-like (CD49f^low, KIT^+) cells after one week from the treatments of FIGS. 6A, 6C, 7B and 7C. FIG. 10 is a bar graph comparing the percentage of EpCAM^+/DAPI^+ cells (i.e., dead epithelial cells) after one week from each of the treatments of FIGS. 6A-7C. […] It should be noted that in FIGS. 8-10, BMS195614 has been abbreviated as “BMS195” due to the available space in the Figures.

[4] = system: CD49f^low, KIT^+ (ductal-like) and CD49f^high, KIT^neg (myoepithelial-like) cells of human ACCs; experiment: Flow cytometry of short-term primary cultures from ACC PDX lines: relative content of ductal-like and myoepithelial-like cells; type: cell-based; conditions: 10 μM, 7 days; ACCX5M1; direct agonists; vs DMSO
[5] = system: myoepithelial-like cells (CD49f^high, KIT^neg) isolated by FACS from solid tumors; experiment: Sorted myoepithelial-like cells (FACS) stimulated in vitro with direct RAR agonist; type: cell-based, human; conditions: ATRA 10 μM (also printed 10 mM), 7 days
[6] = system: human ACCs engrafted in mice (ACCX5M1, SGTX6, ACCX9); experiment: In vivo growth kinetics of ACC PDX lines engrafted subcutaneously in NSG immune-deficient mice
Experimental: Three independent patient-derived xenograft (PDX) lines representative of human ACCs (ACCX5M1, SGTX6, ACCX9) were engrafted in the subcutaneous (s.c.) tissue of NOD/SCID/IL2Rγ^−/− (NS G) immune-deficient mice and left growing until they reached a size of approximately 700 mm^3. Tumor-bearing mice were then divided into two cohorts, one of which was treated with BMS493 (40 mg/kg X 3-4 days/week), while the other received only DMSO (i.e., the solvent used as a vehicle to resuspend BMS493).

[7] = system: human ACC tumor cells (PDX lines SGTX6, ACCX6, ACCX9, ACCX11); experiment: Percentage of dead tumor cells (EpCAM^+/DAPI^+) in primary cultures of ACC PDX lines by flow cytometry; type: cell-based
Source text: (§1) It should be noted that in FIGS. 2A and 2B, the percentage of dead tumor cells is reported as a percentage of the human epithelial cells that incorporate DAPI (i.e. EpCAM^+/DAPI^+) and excludes any contaminant of mouse cells from the primary tissues that were used to generate the cultures (i.e. excludes cells expressing H-2K^d and/or mCd45).
as §1, with “2C” for “2A”, “2D,” for “2B,”

[8] = 7 days, SGTX6 and ACCX5M1, FIGS. 3A, 3B
[9] = ACCX5M1 organoids, one week, FIG. 8
[10] = 10 μM, 7 days, ACCX5M1, SGTX6, ACCX6 (cribriform), vs untreated

SMILES	cell morphology in microscope images (ACCX9 primary cultures)	cell viability [1]	cytotoxic activity [1]	percentage of CD49f^low, KIT^+ (ductal-like) cells [2, 8]	significance of reduction in percentage of CD49f^low, KIT^+ (ductal-like) cells [2]	killing of ductal-like (CD49f^low, KIT^+) cells [3]	percentage of myoepithelial-like cells (CD49f^high, KIT^neg) ([2]; 10 μM, 7 days)	percentage of ductal-like cells (CD49f^low, KIT^+) [4]	other results
Cc1ccc(C2=CCC(C)(C)c3ccc(C#Cc4ccc(C(=O)O)cc4)cc32)cc1 [AGN193109, 4-[2-[5,6-Dihydro-5,5-dimethyl-8-(4-methylphenyl)-2-naphthalenyl]ethynyl]benzoic acid]	widespread cell fragmentation	reduction in cell viability	clear cytotoxic activity	dramatic reduction	statistically significant	able to selectively kill			
CC1(C)CC=C(c2cnc3ccccc3c2)c2cc(C(=O)Nc3ccc(C(=O)O)cc3)ccc21 [BMS195614]									change in percentage of ductal-like (CD49f^low, KIT^+) cells on raising concentration from 1 μM to 10 μM [3, 9]: does not translate in a significant decrease; percentage of ductal-like (CD49f^low, KIT^+) cells relative to BMS493 and AGN193109 [3, 9]: remains statistically superior; anti-tumor effect relative to inverse agonists BMS493 and AGN193109 ([3]; at both doses, 1 μM and 10 μM): clearly systematically inferior
C=C(c1ccc(C(=O)O)cc1)c1cc2c(cc1C)C(C)(C)CCC2(C)C [bexarotene]							reduction	increase	
CC1=C(/C=C/C(C)=C/C=C/C(C)=C/C(=O)O)C(C)(C)CCC1 [ATRA, all-trans retinoic acid]							reduction	increase	differentiation of sorted myoepithelial-like cells into ductal-like cells [5]: differentiation of myoepithelial-like cells
CC1(C)CC=C(C#Cc2ccccc2)c2cc(/C=C/c3ccc(C(=O)O)cc3)ccc21 [BMS493, 4-[(1E)-2-[5,6-Dihydro-5,5-dimethyl-8-(2-phenylethynyl)-2-naphthalenyl]ethenyl]benzoic acid]	widespread cell fragmentation	reduction in cell viability	clear cytotoxic activity	dramatic reduction	statistically significant	able to selectively kill			tumor growth (change in tumor volume over time) ([6]; 40 mg/kg X 3-4 days/week, ACCX5M1, SGTX6, ACCX9 s.c. in NSG mice, vs DMSO): either growth arrest or tumor shrinkage; activity against human ACCs engrafted in mice ([6]; dosing regimens from 10 mg/kg (once daily X 21 days) up to 40 mg/kg (4 times/week X 3 weeks)): active; percentage of CD49f^high, KIT^neg (myoepithelial-like) cells [2, 10]: corresponding relative increase; percentage of CD49f^low, KIT^+ (ductal-like) cells [2, 10]: dramatic reduction; percentage of dead (DAPI^+) cells ([7]; ACCX9 and ACCX11 (solid histology)): substantial increase; percentage of dead tumor cells (EpCAM^+/DAPI^+) ([7]; SGTX6 and ACCX6 (cribriform), vs NT, DMSO or ATRA): substantial increase; percentage of dead cells (EpCAM^+/DAPI^+) ([3]; ACCX5M1 organoids, one week, BMS493 10 μM, BMS195614 1 μM, 10 μM, FIG. 10): significant increase
